Source: the NIST ThermoML archive (doi:10.1021/je050060q)

Assay: xn = mol fraction of the nth substance listed
Settings: 101.3 kPa, Liquid; for mass density: Pycnometric method

CCCCCCCCCCCCCCCC [hexadecane] + CCCCCC
Settings | mass density [kg/m3] | speed of sound [m/s]
293.15 K, x2 = 0.1 | 768.1 | 1341
293.15 K, x2 = 0.2 | 762.36 | 1327
293.15 K, x2 = 0.3 | 756.02 | 1314
293.15 K, x2 = 0.4 | 748.67 | 1297
293.15 K, x2 = 0.5 | 740.14 | 1277
293.15 K, x2 = 0.6 | 729.79 | 1254
293.15 K, x2 = 0.7 | 717.46 | 1228
293.15 K, x2 = 0.8 | 702.3 | 1196
293.15 K, x2 = 0.9 | 683.23 | 1151
298.15 K, x2 = 0.1 | 764.7 | 1322
298.15 K, x2 = 0.2 | 758.88 | 1308
298.15 K, x2 = 0.3 | 752.56 | 1295
298.15 K, x2 = 0.4 | 745.03 | 1277
298.15 K, x2 = 0.5 | 736.52 | 1257
298.15 K, x2 = 0.6 | 726.08 | 1234
298.15 K, x2 = 0.7 | 713.68 | 1207
298.15 K, x2 = 0.8 | 698.4 | 1175
298.15 K, x2 = 0.9 | 679.04 | 1129
303.15 K, x2 = 0.1 | 761.25 | 1304
303.15 K, x2 = 0.2 | 755.4 | 1289
303.15 K, x2 = 0.3 | 749.09 | 1275
303.15 K, x2 = 0.4 | 741.49 | 1258
303.15 K, x2 = 0.5 | 732.9 | 1237
303.15 K, x2 = 0.6 | 722.32 | 1215
303.15 K, x2 = 0.7 | 709.86 | 1187
303.15 K, x2 = 0.8 | 694.47 | 1154
303.15 K, x2 = 0.9 | 674.8 | 1108
308.15 K, x2 = 0.1 | 757.78 | 1285
308.15 K, x2 = 0.2 | 751.9 | 1270
308.15 K, x2 = 0.3 | 745.61 | 1256
308.15 K, x2 = 0.4 | 737.93 | 1238
308.15 K, x2 = 0.5 | 729.25 | 1217
308.15 K, x2 = 0.6 | 718.63 | 1195
308.15 K, x2 = 0.7 | 706.03 | 1167
308.15 K, x2 = 0.8 | 690.5 | 1133
308.15 K, x2 = 0.9 | 670.53 | 1086
313.15 K, x2 = 0.1 | 754.31 | 1266
313.15 K, x2 = 0.2 | 748.41 | 1251
313.15 K, x2 = 0.3 | 741.92 | 1237
313.15 K, x2 = 0.4 | 734.37 | 1219
313.15 K, x2 = 0.5 | 725.59 | 1198
313.15 K, x2 = 0.6 | 714.88 | 1175
313.15 K, x2 = 0.7 | 702.18 | 1146
313.15 K, x2 = 0.8 | 686.49 | 1112
313.15 K, x2 = 0.9 | 666.22 | 1065
318.15 K, x2 = 0.1 | 750.84 | 1248
318.15 K, x2 = 0.2 | 744.91 | 1232
318.15 K, x2 = 0.3 | 738.42 | 1219
318.15 K, x2 = 0.4 | 730.8 | 1200
318.15 K, x2 = 0.5 | 721.92 | 1178
318.15 K, x2 = 0.6 | 711.12 | 1156
318.15 K, x2 = 0.7 | 698.3 | 1126
318.15 K, x2 = 0.8 | 682.45 | 1091
318.15 K, x2 = 0.9 | 661.87 | 1044
323.15 K, x2 = 0.1 | 747.36 | 1230
323.15 K, x2 = 0.2 | 741.4 | 1214
323.15 K, x2 = 0.3 | 734.92 | 1200
323.15 K, x2 = 0.4 | 727.21 | 1181
323.15 K, x2 = 0.5 | 718.23 | 1159
323.15 K, x2 = 0.6 | 707.34 | 1136
323.15 K, x2 = 0.7 | 694.38 | 1107
323.15 K, x2 = 0.8 | 678.36 | 1071
323.15 K, x2 = 0.9 | 657.47 | 1023
328.15 K, x2 = 0.1 | 743.88 | 1211
328.15 K, x2 = 0.2 | 737.89 | 1196
328.15 K, x2 = 0.3 | 731.41 | 1182
328.15 K, x2 = 0.4 | 723.62 | 1163
328.15 K, x2 = 0.5 | 714.52 | 1140
328.15 K, x2 = 0.6 | 703.55 | 1117
328.15 K, x2 = 0.7 | 690.44 | 1087
328.15 K, x2 = 0.8 | 674.25 | 1050
328.15 K, x2 = 0.9 | 653.04 | 1002
333.15 K, x2 = 0.1 | 740.37 | 1193
333.15 K, x2 = 0.2 | 734.36 | 1177
333.15 K, x2 = 0.3 | 727.88 | 1163
333.15 K, x2 = 0.4 | 720.01 | 1144
333.15 K, x2 = 0.5 | 710.8 | 1122
333.15 K, x2 = 0.6 | 699.74 | 1098
333.15 K, x2 = 0.7 | 686.47 | 1067
333.15 K, x2 = 0.8 | 670.09 | 1030
333.15 K, x2 = 0.9 | 648.56 | 981
338.15 K, x2 = 0.1 | – | 1176
338.15 K, x2 = 0.2 | – | 1160
338.15 K, x2 = 0.3 | – | 1145
338.15 K, x2 = 0.4 | – | 1126
338.15 K, x2 = 0.5 | – | 1103
338.15 K, x2 = 0.6 | – | 1079
338.15 K, x2 = 0.7 | – | 1048
338.15 K, x2 = 0.8 | – | 1010
338.15 K, x2 = 0.9 | – | 960
343.15 K, x2 = 0.1 | – | 1158
343.15 K, x2 = 0.2 | – | 1142
343.15 K, x2 = 0.3 | – | 1127
343.15 K, x2 = 0.4 | – | 1108
343.15 K, x2 = 0.5 | – | 1084
343.15 K, x2 = 0.6 | – | 1060
343.15 K, x2 = 0.7 | – | 1029
343.15 K, x2 = 0.8 | – | 990
343.15 K, x2 = 0.9 | – | 939
348.15 K, x2 = 0.1 | – | 1140
348.15 K, x2 = 0.2 | – | 1124
348.15 K, x2 = 0.3 | – | 1109
348.15 K, x2 = 0.4 | – | 1089
348.15 K, x2 = 0.5 | – | 1066
348.15 K, x2 = 0.6 | – | 1042
348.15 K, x2 = 0.7 | – | 1010
348.15 K, x2 = 0.8 | – | 971
348.15 K, x2 = 0.9 | – | 918
353.15 K, x2 = 0.1 | – | 1123
353.15 K, x2 = 0.2 | – | 1106
353.15 K, x2 = 0.3 | – | 1092
353.15 K, x2 = 0.4 | – | 1072
353.15 K, x2 = 0.5 | – | 1048
353.15 K, x2 = 0.6 | – | 1023
353.15 K, x2 = 0.7 | – | 991
353.15 K, x2 = 0.8 | – | 951
353.15 K, x2 = 0.9 | – | 898
358.15 K, x2 = 0.1 | – | 1106
358.15 K, x2 = 0.2 | – | 1089
358.15 K, x2 = 0.3 | – | 1074
358.15 K, x2 = 0.4 | – | 1054
358.15 K, x2 = 0.5 | – | 1030
358.15 K, x2 = 0.6 | – | 1005
358.15 K, x2 = 0.7 | – | 972
358.15 K, x2 = 0.8 | – | 932
358.15 K, x2 = 0.9 | – | 877
363.15 K, x2 = 0.1 | – | 1088
363.15 K, x2 = 0.2 | – | 1071
363.15 K, x2 = 0.3 | – | 1057
363.15 K, x2 = 0.4 | – | 1036
363.15 K, x2 = 0.5 | – | 1012
363.15 K, x2 = 0.6 | – | 986
363.15 K, x2 = 0.7 | – | 953
363.15 K, x2 = 0.8 | – | 912
363.15 K, x2 = 0.9 | – | 857
368.15 K, x2 = 0.1 | – | 1072
368.15 K, x2 = 0.2 | – | 1054
368.15 K, x2 = 0.3 | – | 1039
368.15 K, x2 = 0.4 | – | 1019
368.15 K, x2 = 0.5 | – | 995
368.15 K, x2 = 0.6 | – | 968
368.15 K, x2 = 0.7 | – | 935
368.15 K, x2 = 0.8 | – | 893
368.15 K, x2 = 0.9 | – | 837
373.15 K, x2 = 0.1 | – | 1055
373.15 K, x2 = 0.2 | – | 1037
373.15 K, x2 = 0.3 | – | 1022
373.15 K, x2 = 0.4 | – | 1002
373.15 K, x2 = 0.5 | – | 977
373.15 K, x2 = 0.6 | – | 950
373.15 K, x2 = 0.7 | – | 916
373.15 K, x2 = 0.8 | – | 874
373.15 K, x2 = 0.9 | – | 816
